Here are results for two molecules from patent publication US7608640B2, “Glycine betaine and its use” (priority 2001, dated 2009).

The test system of series [1] is arterial thrombosis induced by laser beam in the mesenteric microcirculation of the rat. Nature of the series: Laser-induced thrombosis in the mesenteric microcirculation. The series is classed as in vivo. The text has this:
A/Principle of Laser-induced Thrombosis (Seiffge D. et al., 1989; Weichter W. et al., 1983).
In this model, lesion of the vascular wall is induced by a laser beam. This beam causes a limited lesion of the vascular endothelium (only 1 to 2 cells are destroyed). This laying bare of the sub-endothelium, which is a thrombogenetic surface, results in the adherence of platelets via […]. This adherence of platelets is followed by the activation thereof. They form pseudopods and secrete the content of their granules. This activation results in the appearance of glycoproteins IIb-IIIa which are necessary for the aggregation of the platelets between them. This lesion is induced in the mesenteric microcirculation of the rat. It is immediately followed by the formation of a thrombus (in a few seconds). This thrombus, which rapidly enlarges under the influence of the flow of blood, embolises before being formed again.
By this manes, the assessment of the effect of glycine betaine was conducted pharmacologically in conjunction with the study of two active molecules used as a reference; namely acetylsalicylic acid and heparin (of low molecular weight). The assessment also involved the activity of glycine betaine in relation to the prothrombotic effects induced by contrasting products.
Male Wistar rats were used for these tests. They weighed between 200 and 250 grams. After an 8-day stabilisation period, the rats were subjected to fasting for 12 hours. They were then anaesthetised, glycine betaine was administered subcutaneously, and the mesentery (laser) or vena cava (stasis) was opened at the end of the experiments.

Series [2] concerns bleeding time in rats. The experiment in a line: Induced haemorrhagic (bleeding) time, tail cut. In kind it is in vivo, rat. As for the experimental part: Induced Haemorrahgic Time IHT
(E. Dejana. Bleeding time in rats. Thrombosis. Rech. 1982) Blood samples are made before the test. The tail of anaesthetised rat, is dipped for 5 minutes in a water bath at 37° C. so as to provoke a dilatation of the peripheral vessels which are removed and cut at the end, the chronometer being started. The IHT is defined as being the time period comprised between the cutting of end tail and the end of the haemorrhage or bleeding. The end of haemorrhage is defined as the time where the last drop of blood is removed from the tail and no other drop is seen for 180 seconds. […]

Series [3] concerns platelet aggregation. Nature of the series: Whole blood platelet aggregation ex vivo (aggregometer). To be noted: after laser firings. The series is classed as in vivo, rat. How it is done:
The aggregation is made in accordance to the methods of Cardinal & Flower. Pharmacol. Method. 1980, and to American Journal of Clinical Pathology, 1989; 92: 676-679, Sureney. J D. Whole Blood aggregometry. After a keeping period of 8 days, the rats are subjected to a fasting for 12 hours. […] The rats are then anaesthetised with sodium Thiopental administered at a dose of 200 mg/Kg and the blood samples are taken by intracardiac puncture on a trisodium citrate solution (1 volume of solution at 3.8% citrate for 9 volumes of blood).

Series [4] relates to blood cells. The experiment in a line: Blood cell counts. In kind it is in vivo, rat.
Series [5] relates to coagulation factors. Nature of the series: Biological balance (Quick time, ACT, fibrinogen, α2AP, AT III). In kind it is in vivo, rat.
Setting [6] is: rat, after laser firings, glycine betaine 5 mg/kg, acetylsalicylic acid 100 mg/kg, heparin 2 mg/kg.
Where [7] appears, read: rat, glycine betaine 5 mg/kg, acetylsalicylic acid 100 mg/kg, heparin 2 mg/kg.
Setting [8] is: after laser firings and administration of contrasting products, alone or with glycine betaine 5 mg/kg.
Setting [9] is: contrasting products alone or with glycine betaine 5 mg/kg.

As to `CC(=O)Oc1ccccc1C(=O)O` [Acetylsalicylic acid], in series [1] (setting [6]), the Duration of embolisation was 0.33 ± 0.58 min and the “Number of emboles or embolies” value is given as 1 ± 1. Also, the Bleeding time in series [2] (setting [7]) was 276.67 ± 20.82 s. In series [3] (setting [7]), the “Amplitude (platelet aggregation)” value came to 2.33 ± 2.08 ohms and the “Velocity (platelet aggregation)” value was found to be 2 ± 1 ohms/min. Moreover, in series [4] (setting [7]), the Number of platelets is 855.33 ± 63.17 10^9, the “Number of red corpuscles” value is 6.15 ± 0.31 10^12 and the “Number of white corpuscles” value is 4.33 ± 1.00 10^9. In series [5] (setting [7]), the “ACT (Activated cephaline time)” value was 27.26 ± 1.1 s, the “AT III (Antithrombin III)” value is recorded as 85.33 ± 3.51%, the Fibrinogen was determined as 2.19 ± 0.33 g/L and the “QT (Quick time)” value was determined as 18.33 ± 2.08 s. Moreover, in series [5] (setting [7]), the “α2AP (Alpha,2-antiplasmin)” value came out at 29.36 ± 0.92%.

For the molecule `C[C@H](O)C(=O)Nc1c(I)c(C(=O)NC(CO)CO)c(I)c(C(=O)NC(CO)CO)c1I` [Iopamidol ®, Iopamidol], in series [1] (setting [8]), the Duration of embolisation was 6.33 ± 0.52 min and the Number of emboles stood at 11.67 ± 0.50. Moreover, in series [2] (setting [9]), the “IBD (induced bleeding time)” value came to 128 ± 7.64 s. Moreover, in series [3] (setting [9]), the “Amplitude (platelet aggregation)” value is 15 ± 2.64 ohm and the “Velocity (platelet aggregation)” value amounted to 12.33 ± 0.50 ohm/min. For the same molecule, in series [4] (setting [9]), the Number of platelets is reported as 585.67 ± 23.54 10^9. Moreover, in series [5] (setting [9]), the “ACT (Activated cephaline time)” value amounted to 41.33 ± 0.8 s, the “AT III (Antithrombin III)” value is reported as 70.6 ± 1.51%, the Fibrinogen amounted to 1.5 ± 0.8 g/L and the “QT (Quick time)” value is 28.1 ± 0.75 s. Besides, in series [5] (setting [9]), the “α2AP (Alpha,2-antiplasmin)” value was 25.23 ± 0.95%.
